Measurements as given in patent US20260345619A1 (Principia Biopharma Inc., priority 2023, published 2026).

Experiment: Pre-bronchodilator FEV1 and percent predicted FEV1 by spirometry, change from baseline
Assay type: in vivo, human
Details: 400 mg BID, Week 12
Method: Spirometry is a standard test to measure patients' lung function.
The primary endpoint was the proportion of patients with LOAC. The key secondary endpoint for the study was change in pre-bronchodilator FEV1 from baseline at EOT.
Reversibility is defined as an increase of the absolute FEV1 after administration of bronchodilator and is measured by spirometry as postbronchodilator increase in FEV1 in percent of the prebronchodilator FEV1. After spirometry for measuring prebronchodilator FEV1, participants were to receive 2-4 puffs of albuterol/salbutamol or levalbuterol/levosalbutamol from a primed MDI. The postbronchodilator spirometry may have been repeated several times within 30 minutes after administration of bronchodilator. Alternatively, and only if it was consistent with usual office practice (to be documented), reversibility may have been performed using inhalation of nebulized albuterol/salbutamol or levalbuterol/levosalbutamol.
Secondary endpoints included pre-bronchodilator FEV1 change from baseline at EOT, ACQ-5 score change from baseline, and AQLQ score change from baseline. Other secondary and exploratory endpoints are described in Table 2.

[1] = >2 exacerbations within 2 years
[2] = baseline FEV1 <2.022 L (median)
[3] = baseline FEV1 reversibility <12%
[4] = baseline FEV1 reversibility ≥12%
[5] = baseline FEV1 ≥2.022 L (median)
[6] = baseline IgE <210.8 IU/mL (median)
[7] = baseline IgE ≥210.8 IU/mL (median)
[8] = baseline blood eosinophils <0.15 10^9/L
[9] = baseline blood eosinophils <0.3 10^9/L
[10] = baseline blood eosinophils ≥0.15 10^9/L
[11] = baseline blood eosinophils ≥0.3 10^9/L
[12] = baseline percent predicted FEV1 <68% (median)
[13] = baseline percent predicted FEV1 ≥68% (median)

## CC(C)(C=C(C#N)C(=O)N1CCC[C@@H](n2nc(-c3ccc(Oc4ccccc4)cc3F)c3c(N)ncnc32)C1)N1CCN(C2COC2)CC1 (mixture of isomers) [rilzabrutinib, (R)-2-[3-[4-amino-3-(2-fluoro-4-phenoxy-phenyl)pyrazolo[3,4-d]pyrimidin-1-yl]piperidine-1-carbonyl]-4-methyl-4-[4-(oxetan-3-yl)piperazin-1-yl]pent-2-enenitrile]
1 exacerbation within 2 years
  Pre-bronchodilator FEV1 change from baseline, LS Mean: -0.08 L
  Pre-bronchodilator FEV1 change from baseline, LS Mean Diff vs. placebo: -0.05 L
  Pre-bronchodilator FEV1 change from baseline, Mean: 0.05 L
2 exacerbations within 2 years
  Pre-bronchodilator FEV1 change from baseline, LS Mean: -0.01 L
  Pre-bronchodilator FEV1 change from baseline, LS Mean Diff vs. placebo: 0.10 L
  Pre-bronchodilator FEV1 change from baseline, Mean: -0.06 L
[1]
  Pre-bronchodilator FEV1 change from baseline, LS Mean: -0.36 L
  Pre-bronchodilator FEV1 change from baseline, LS Mean Diff vs. placebo: -0.16 L
  Pre-bronchodilator FEV1 change from baseline, Mean: -0.15 L
APAC
  Pre-bronchodilator FEV1 change from baseline, Mean: -0.09 L
Eastern Europe
  Pre-bronchodilator FEV1 change from baseline, Mean: -0.21 L
Latin America
  Pre-bronchodilator FEV1 change from baseline, LS Mean: -0.07 L
  Pre-bronchodilator FEV1 change from baseline, LS Mean Diff vs. placebo: -0.01 L
  Pre-bronchodilator FEV1 change from baseline, Mean: -0.05 L
Western Countries
  Pre-bronchodilator FEV1 change from baseline, Mean: 0.24 L
Age <45 years
  Pre-bronchodilator FEV1 change from baseline, LS Mean: -0.13 L
  Pre-bronchodilator FEV1 change from baseline, LS Mean Diff vs. placebo: -0.13 L
  Pre-bronchodilator FEV1 change from baseline, Mean: -0.05 L
Age ≥45 years
  Pre-bronchodilator FEV1 change from baseline, LS Mean: -0.14 L
  Pre-bronchodilator FEV1 change from baseline, LS Mean Diff vs. placebo: 0.02 L
  Pre-bronchodilator FEV1 change from baseline, Mean: -0.03 L
Asthma onset age <12 years
  Pre-bronchodilator FEV1 change from baseline, LS Mean: 0.12 L
  Pre-bronchodilator FEV1 change from baseline, LS Mean Diff vs. placebo: 0.18 L
  Pre-bronchodilator FEV1 change from baseline, Mean: 0.00 L
Asthma onset age <18 years
  Pre-bronchodilator FEV1 change from baseline, LS Mean: -0.00 L
  Pre-bronchodilator FEV1 change from baseline, LS Mean Diff vs. placebo: 0.08 L
  Pre-bronchodilator FEV1 change from baseline, Mean: 0.04 L
Asthma onset age ≥12-<18 years
  Pre-bronchodilator FEV1 change from baseline, Mean: 0.12 L
Asthma onset age ≥18-<40 years
  Pre-bronchodilator FEV1 change from baseline, LS Mean: -0.14 L
  Pre-bronchodilator FEV1 change from baseline, LS Mean Diff vs. placebo: 0.00 L
  Pre-bronchodilator FEV1 change from baseline, Mean: -0.08 L
Asthma onset age ≥18 years
  Pre-bronchodilator FEV1 change from baseline, LS Mean: -0.17 L
  Pre-bronchodilator FEV1 change from baseline, LS Mean Diff vs. placebo: -0.03 L
  Pre-bronchodilator FEV1 change from baseline, Mean: -0.11 L
Asthma onset age ≥40 years
  Pre-bronchodilator FEV1 change from baseline, LS Mean: 0.00 L
  Pre-bronchodilator FEV1 change from baseline, LS Mean Diff vs. placebo: 0.07 L
  Pre-bronchodilator FEV1 change from baseline, Mean: -0.31 L
Atopic medical conditions: No
  Pre-bronchodilator FEV1 change from baseline, LS Mean: -0.15 L
  Pre-bronchodilator FEV1 change from baseline, LS Mean Diff vs. placebo: 0.10 L
  Pre-bronchodilator FEV1 change from baseline, Mean: -0.16 L
Atopic medical conditions: Yes
  Pre-bronchodilator FEV1 change from baseline, LS Mean: 0.02 L
  Pre-bronchodilator FEV1 change from baseline, LS Mean Diff vs. placebo: -0.03 L
  Pre-bronchodilator FEV1 change from baseline, Mean: 0.03 L
Background ICS/LABA dose High
  Pre-bronchodilator FEV1 change from baseline, LS Mean: -0.11 L
  Pre-bronchodilator FEV1 change from baseline, LS Mean Diff vs. placebo: 0.02 L
  Pre-bronchodilator FEV1 change from baseline, Mean: -0.05 L
Background ICS/LABA dose Medium
  Pre-bronchodilator FEV1 change from baseline, Mean: 0.04 L
Baseline ACQ-5 >2
  Pre-bronchodilator FEV1 change from baseline, LS Mean: -0.12 L
  Pre-bronchodilator FEV1 change from baseline, LS Mean Diff vs. placebo: -0.04 L
  Pre-bronchodilator FEV1 change from baseline, Mean: -0.09 L
Baseline ACQ-5 ≤2
  Pre-bronchodilator FEV1 change from baseline, LS Mean: -0.12 L
  Pre-bronchodilator FEV1 change from baseline, LS Mean Diff vs. placebo: 0.04 L
  Pre-bronchodilator FEV1 change from baseline, Mean: 0.00 L
Baseline BMI <25 kg/m^2
  Pre-bronchodilator FEV1 change from baseline, LS Mean: -0.09 L
  Pre-bronchodilator FEV1 change from baseline, LS Mean Diff vs. placebo: 0.15 L
  Pre-bronchodilator FEV1 change from baseline, Mean: 0.02 L
Baseline BMI ≥25-<30 kg/m^2
  Pre-bronchodilator FEV1 change from baseline, LS Mean: -0.06 L
  Pre-bronchodilator FEV1 change from baseline, LS Mean Diff vs. placebo: 0.06 L
  Pre-bronchodilator FEV1 change from baseline, Mean: -0.00 L
Baseline BMI ≥30 kg/m^2
  Pre-bronchodilator FEV1 change from baseline, LS Mean: -0.04 L
  Pre-bronchodilator FEV1 change from baseline, LS Mean Diff vs. placebo: -0.13 L
  Pre-bronchodilator FEV1 change from baseline, Mean: -0.18 L
[2]
  Pre-bronchodilator FEV1 change from baseline, LS Mean: -0.08 L
  Pre-bronchodilator FEV1 change from baseline, LS Mean Diff vs. placebo: 0.04 L
  Pre-bronchodilator FEV1 change from baseline, Mean: -0.06 L
[3]
  Pre-bronchodilator FEV1 change from baseline, LS Mean: -0.23 L
  Pre-bronchodilator FEV1 change from baseline, LS Mean Diff vs. placebo: -0.00 L
  Pre-bronchodilator FEV1 change from baseline, Mean: -0.24 L
[4]
  Pre-bronchodilator FEV1 change from baseline, LS Mean: 0.07 L
  Pre-bronchodilator FEV1 change from baseline, LS Mean Diff vs. placebo: -0.05 L
  Pre-bronchodilator FEV1 change from baseline, Mean: 0.08 L
[5]
  Pre-bronchodilator FEV1 change from baseline, LS Mean: -0.09 L
  Pre-bronchodilator FEV1 change from baseline, LS Mean Diff vs. placebo: -0.03 L
  Pre-bronchodilator FEV1 change from baseline, Mean: -0.02 L
Baseline FeNO <25 ppb
  Pre-bronchodilator FEV1 change from baseline, LS Mean: -0.16 L
  Pre-bronchodilator FEV1 change from baseline, LS Mean Diff vs. placebo: 0.03 L
  Pre-bronchodilator FEV1 change from baseline, Mean: -0.12 L
Baseline FeNO <35 ppb
  Pre-bronchodilator FEV1 change from baseline, LS Mean: -0.19 L
  Pre-bronchodilator FEV1 change from baseline, LS Mean Diff vs. placebo: -0.04 L
  Pre-bronchodilator FEV1 change from baseline, Mean: -0.10 L
Baseline FeNO ≥25 ppb
  Pre-bronchodilator FEV1 change from baseline, LS Mean: -0.00 L
  Pre-bronchodilator FEV1 change from baseline, LS Mean Diff vs. placebo: -0.01 L
  Pre-bronchodilator FEV1 change from baseline, Mean: 0.01 L
Baseline FeNO ≥35 ppb
  Pre-bronchodilator FEV1 change from baseline, LS Mean: 0.05 L
  Pre-bronchodilator FEV1 change from baseline, LS Mean Diff vs. placebo: 0.06 L
  Pre-bronchodilator FEV1 change from baseline, Mean: 0.08 L
Baseline IgE <100 IU/mL
  Pre-bronchodilator FEV1 change from baseline, LS Mean: -0.11 L
  Pre-bronchodilator FEV1 change from baseline, LS Mean Diff vs. placebo: -0.03 L
  Pre-bronchodilator FEV1 change from baseline, Mean: -0.09 L
[6]
  Pre-bronchodilator FEV1 change from baseline, LS Mean: -0.11 L
  Pre-bronchodilator FEV1 change from baseline, LS Mean Diff vs. placebo: 0.01 L
  Pre-bronchodilator FEV1 change from baseline, Mean: -0.02 L
Baseline IgE ≥100 IU/mL
  Pre-bronchodilator FEV1 change from baseline, LS Mean: -0.04 L
  Pre-bronchodilator FEV1 change from baseline, LS Mean Diff vs. placebo: 0.02 L
  Pre-bronchodilator FEV1 change from baseline, Mean: -0.02 L
[7]
  Pre-bronchodilator FEV1 change from baseline, LS Mean: -0.02 L
  Pre-bronchodilator FEV1 change from baseline, LS Mean Diff vs. placebo: 0.01 L
  Pre-bronchodilator FEV1 change from baseline, Mean: -0.08 L
[8]
  Pre-bronchodilator FEV1 change from baseline, LS Mean: -0.08 L
  Pre-bronchodilator FEV1 change from baseline, LS Mean Diff vs. placebo: -0.04 L
  Pre-bronchodilator FEV1 change from baseline, Mean: -0.10 L
[9]
  Pre-bronchodilator FEV1 change from baseline, LS Mean: -0.15 L
  Pre-bronchodilator FEV1 change from baseline, LS Mean Diff vs. placebo: -0.07 L
  Pre-bronchodilator FEV1 change from baseline, Mean: -0.10 L
[10]
  Pre-bronchodilator FEV1 change from baseline, LS Mean: -0.03 L
  Pre-bronchodilator FEV1 change from baseline, LS Mean Diff vs. placebo: 0.07 L
  Pre-bronchodilator FEV1 change from baseline, Mean: -0.01 L
[11]
  Pre-bronchodilator FEV1 change from baseline, LS Mean Diff vs. placebo: 0.07 L
  Pre-bronchodilator FEV1 change from baseline, Mean: 0.04 L
[12]
  Pre-bronchodilator FEV1 change from baseline, LS Mean: -0.21 L
  Pre-bronchodilator FEV1 change from baseline, LS Mean Diff vs. placebo: 0.03 L
  Pre-bronchodilator FEV1 change from baseline, Mean: -0.05 L
[13]
  Pre-bronchodilator FEV1 change from baseline, LS Mean: -0.07 L
  Pre-bronchodilator FEV1 change from baseline, LS Mean Diff vs. placebo: -0.01 L
  Pre-bronchodilator FEV1 change from baseline, Mean: -0.02 L
Baseline weight <60 kg
  Pre-bronchodilator FEV1 change from baseline, Mean: -0.02 L
Baseline weight ≥60-<90 kg
  Pre-bronchodilator FEV1 change from baseline, LS Mean: -0.09 L
  Pre-bronchodilator FEV1 change from baseline, LS Mean Diff vs. placebo: 0.03 L
  Pre-bronchodilator FEV1 change from baseline, Mean: -0.01 L
